Laboratory results reported in patent US7378401B2, “Use of Fosfluridine Tidoxil (FT) for the treatment of intraepithelial proliferative diseases” (Heidelberg Pharma GmbH, priority 2006, dated 2008).
“Also recorded” adds a separate entry of the source. Read-outs that look alike come from different tables or passages of the source.

Experiments:
[1] = after intravenous administration; cited from earlier work
[2] = system: bone marrow cells; assay: bone marrow toxicity after intravenous doses; type: in vivo; details: single and repeated intravenous doses
[3] = in vivo
Source text: One of the drawbacks of using intravenously administered 5-Fluorouracil is bone marrow suppression, expressed clinically by increased susceptibility to infections and fatigue.

[4] = system: actinic keratosis; assay: oral Fosfluridine Tidoxil in patients with advanced actinic keratosis; type: in vivo, human
Protocol: A person was suffering from an advanced actinic keratosis since more than 3 years. In this time they received different types of topical treatment, such as Solaraze (3% Diclofenac) or Aldara (Imiquimod). Thereafter they were treated with 50 mg of Fosfluridine Tidoxil (1 capsule). The patient received 3 cycles each cycle consisting of a once daily oral administration over 7 days followed by a treatment free week (two weeks per cycle).
A patient was diagnosed to have an actinic keratosis 15 years before and was now in an advanced stage. In the years before taking Fosfluridine Tidoxil they were, in essence, treated with Solaraze. Since the therapeutic benefit appears to be limited they then received 100 mg of oral Fosfluridine Tidoxil (2 capsules of 50 mg) over 3 cycles (as mentioned above).
A person with a first diagnosis of Actinic keratosis 1.6 years before use of Fosfluridine Tidoxil was treated topically, however, eventually without therapeutic benefit. […] They then received 100 mg of oral Fosfluridine Tidoxil (2 capsules of 50 mg) over 3 cycles (as described above). […] This patient was not treated over the next four months with any topical.
A patient suffered from Actinic keratosis for more than 7 years and was now in an advanced stage. […] […], then, received 100 mg of oral Fosfluridine Tidoxil (2 capsules of 50 mg) over 3 cycles (as de-scribed above). […] In the next 2 month this patient was not treated with any topical.

[5] = system: primary human keratinocytes
[6] = system: SCLC xenograft; details: mice, dose-dependent, maximum inhibition
[7] = mice, up to highest single p.o. dose tested of 3.8 g/kg
[8] = system: CFU-E and CFU-GM; details: doses manifold higher than highly toxic doses of FUrd
[9] = oral administration, mice
[10] = oral administration, rhesus monkeys
[11] = man

Row | Compound | drug eliminated within the first hour [1] | bone marrow toxicity [2] | distribution to the bone marrow [3] | reduction of lesion count ([4]; 50 mg oral once daily, 3 cycles (7 days on, 7 days off), plus one month of observation) | histological stage of lesions ([4]; 50 mg oral once daily, 3 cycles, plus one month of observation, most severe area) | histological stage of lesions ([4]; 100 mg oral once daily, 3 cycles, plus one month of observation, listed as Fosfluridine Tidoxil) | outcome in follow-up without any topical treatment ([4]; after 100 mg oral, 3 cycles, next 2-4 months without topical, listed as Fosfluridine Tidoxil) | effectiveness in proliferating compared to non-proliferating keratinocytes [5] | inhibition of SCLC xenograft tumor growth [6] | mortality in acute tolerability study [7] | suppression of in vitro colony formation of CFU-E and CFU-GM [8] | plasma half-life [9] | plasma half-life [10] | plasma concentrations of 5-FU and 5-FUrd after administration of FT [11] | plasma half-life ([11]; oral administration)
1 | O=c1[nH]cc(F)c(=O)[nH]1 [Example 5-FU, 5-Fluorouracil] | Over 90% | – | – | – | – | – | – | – | – | – | – | – | – | – | –
2 | O=c1[nH]c(=O)n([C@@H]2O[C@H](CO)[C@@H](O)[C@H]2O)cc1F [Example 5-FUrd, 5-Fluorouridine, reference compound] | – | dose-dependently suppressed bone marrow cells | – | – | – | – | – | – | – | – | – | – | – | – | –
3 | CCCCCCCCCCCCSCC(COP(=O)([O-])OCC1OC(n2cc(F)c(=O)[nH]c2=O)C(O)C1O)OCCCCCCCCCC.[Na+] (stereo not shown) [FT, (5-fluorouridine)-5′-phosphoric acid (3-dodecylmercapto-2-decyloxy)propylester, Na-salt] | – | did not result in bone marrow toxicity | not distributed to the bone marrow | 34% | reduced from stage 3 to stage 1 | decreased from class 2 to class 1; also recorded: reduced from class 3 to class 2; also recorded: reduced from 3 to 1 | all actinic keratoses have disappeared; also recorded: all actinic lesions have disappeared | far more effective in proliferating primary human keratinocytes | up to 82% | no animal died | did not suppress | 4 to 5 h | 8 to 10 h | negligible | > 20 h
